BindingDB's records for PubMed 39655996 (AstraZeneca)

Biological target: Poly [ADP-ribose] polymerase 2 (Homo sapiens, UniProt Q9UGN5)
Test: Inhibition of N-terminal 6His-tagged full-length recombinant human PARP2 by fluorescence anisotropy assay

Chain of Poly [ADP-ribose] polymerase 2 (Q9UGN5 whole entry): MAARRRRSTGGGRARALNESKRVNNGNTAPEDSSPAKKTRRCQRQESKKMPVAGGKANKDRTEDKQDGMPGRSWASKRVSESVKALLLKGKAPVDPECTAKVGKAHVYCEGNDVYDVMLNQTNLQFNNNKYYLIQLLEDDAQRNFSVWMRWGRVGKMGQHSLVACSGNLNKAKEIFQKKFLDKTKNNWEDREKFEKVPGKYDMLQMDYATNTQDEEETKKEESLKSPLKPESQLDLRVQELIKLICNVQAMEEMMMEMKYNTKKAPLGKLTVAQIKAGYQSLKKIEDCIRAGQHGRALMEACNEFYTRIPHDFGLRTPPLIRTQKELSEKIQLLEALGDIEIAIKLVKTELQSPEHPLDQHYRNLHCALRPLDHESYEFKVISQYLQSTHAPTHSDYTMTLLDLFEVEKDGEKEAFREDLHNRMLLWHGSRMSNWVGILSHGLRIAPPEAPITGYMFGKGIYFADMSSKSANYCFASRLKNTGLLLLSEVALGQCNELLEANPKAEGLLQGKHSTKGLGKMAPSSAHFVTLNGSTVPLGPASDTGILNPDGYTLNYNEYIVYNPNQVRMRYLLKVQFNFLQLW

- IC50: > 100 µM
Compound: CNC(=O)c1ccc(N2CCN(Cc3ccc4nc(C)c(=O)[nH]c4c3F)CC2)c(C)n1 [5-[4-[(5-fluoro-2-methyl-3-oxo-4H-quinoxalin-6-yl)methyl]piperazin-1-yl]-N,6-dimethyl-pyridine-2-carboxamide]
